The target in test [1] is PI3K (Homo sapiens, UniProt P42336). In words: Fluorescence polarization assay for PI3K.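 Further: PI3K kinase reaction on PIP2 with ATP, 30-60 min, product sensed by GST-GRP with red probe in fluorescence polarization (mP), controls without enzyme and at zero time.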 The following applies: PI3Kα, read-out: PI3Kα IC50. It is filed as biochemical. (In general: In fluorescence polarisation assays a small probe gives low polarisation when free and higher when bound to something large.)
Sequence of PI3K (P42336 whole entry): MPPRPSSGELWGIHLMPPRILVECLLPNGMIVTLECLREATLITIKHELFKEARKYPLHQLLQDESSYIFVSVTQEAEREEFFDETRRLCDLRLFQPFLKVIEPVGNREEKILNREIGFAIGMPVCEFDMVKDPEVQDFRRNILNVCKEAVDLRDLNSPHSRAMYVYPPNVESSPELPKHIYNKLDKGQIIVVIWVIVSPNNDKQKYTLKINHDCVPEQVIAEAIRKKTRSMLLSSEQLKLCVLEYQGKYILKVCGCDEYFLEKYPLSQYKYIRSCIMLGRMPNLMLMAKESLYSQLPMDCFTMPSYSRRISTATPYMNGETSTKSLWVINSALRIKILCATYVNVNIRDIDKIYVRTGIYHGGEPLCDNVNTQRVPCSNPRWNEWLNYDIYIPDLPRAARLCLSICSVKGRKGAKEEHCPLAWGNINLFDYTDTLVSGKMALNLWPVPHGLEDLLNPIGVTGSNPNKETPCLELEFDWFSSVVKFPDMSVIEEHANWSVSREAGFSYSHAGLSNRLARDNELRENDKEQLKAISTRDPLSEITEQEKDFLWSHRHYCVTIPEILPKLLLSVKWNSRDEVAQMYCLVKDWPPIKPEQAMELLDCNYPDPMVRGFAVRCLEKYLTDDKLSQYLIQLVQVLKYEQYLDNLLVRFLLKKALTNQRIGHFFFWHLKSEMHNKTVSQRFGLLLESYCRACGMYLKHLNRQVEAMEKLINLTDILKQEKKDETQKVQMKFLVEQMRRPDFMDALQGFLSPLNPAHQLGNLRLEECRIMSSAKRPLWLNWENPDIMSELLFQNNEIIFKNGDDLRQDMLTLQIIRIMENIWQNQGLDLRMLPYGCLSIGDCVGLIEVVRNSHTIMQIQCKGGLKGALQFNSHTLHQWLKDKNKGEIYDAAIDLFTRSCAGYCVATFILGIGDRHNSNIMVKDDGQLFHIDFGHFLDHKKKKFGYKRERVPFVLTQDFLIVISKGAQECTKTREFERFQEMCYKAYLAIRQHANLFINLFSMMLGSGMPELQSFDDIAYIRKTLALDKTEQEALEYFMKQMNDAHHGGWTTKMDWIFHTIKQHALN
Sequence of PI3K (P27986 whole entry partner): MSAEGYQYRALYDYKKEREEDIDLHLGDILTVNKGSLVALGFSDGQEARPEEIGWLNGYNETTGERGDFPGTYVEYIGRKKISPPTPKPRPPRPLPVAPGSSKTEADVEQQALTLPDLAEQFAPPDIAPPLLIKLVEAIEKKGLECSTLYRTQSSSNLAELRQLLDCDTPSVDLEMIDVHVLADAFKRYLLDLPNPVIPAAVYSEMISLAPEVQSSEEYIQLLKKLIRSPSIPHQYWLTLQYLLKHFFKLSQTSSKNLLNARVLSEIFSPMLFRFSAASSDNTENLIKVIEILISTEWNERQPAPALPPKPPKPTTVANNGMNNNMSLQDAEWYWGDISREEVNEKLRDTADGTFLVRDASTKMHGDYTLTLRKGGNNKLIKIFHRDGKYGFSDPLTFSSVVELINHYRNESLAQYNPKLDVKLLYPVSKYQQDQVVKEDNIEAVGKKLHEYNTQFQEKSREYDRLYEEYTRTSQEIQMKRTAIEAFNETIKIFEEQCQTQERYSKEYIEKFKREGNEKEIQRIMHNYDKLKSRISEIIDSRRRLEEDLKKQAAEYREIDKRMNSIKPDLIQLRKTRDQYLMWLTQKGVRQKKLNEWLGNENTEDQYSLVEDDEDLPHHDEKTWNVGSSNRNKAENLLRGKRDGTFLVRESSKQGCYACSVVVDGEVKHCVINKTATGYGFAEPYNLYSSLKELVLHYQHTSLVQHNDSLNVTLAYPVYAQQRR
The target of test [2] is T1, Human mTOR (FLAG-TOR) (Homo sapiens, UniProt P42345).
T1 construct: FLAG
Nature of the test: Human mTOR kinase assay with purified enzyme, DELFIA format. It is filed as biochemical.

The subject of test [3] is prostate line LNCap. In words: In vitro cell culture growth assay (MTS), LNCap. Format: cell-based, human. The settings on record: LNCap cells, three days after drug treatment.
Test [4] deals with breast line MDA468. Nature of the test: In vitro cell culture growth assay (MTS), MDA468. It is filed as cell-based, human. The settings on record: MDA468 cells, three days after drug treatment. Summed up: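 Cells were plated and, one day later, exposed to inhibitors for three days; viable cell density was then measured by metabolic conversion of MTS dye, read as absorbance at 490 nm. Growth is expressed as percent of vehicle-treated control cells on the same plate.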

Where two headings read alike, the source gives them in different places.

One may read the IC50 as the concentration needed to halve the response being measured. With “1-(2-Fluoro-ethyl)-3-(4-{1-[1-(4-hydroxy-butyl)-piperidin-4-yl]-4-morpholin-4-yl-1H-pyrazolo[3,4-d]pyrimidin-6-yl}-phenyl)-urea [Example 54]”, the IC50 in test [1] was 1750 nM; in test [2], 29 nM.
In the case of “1-(4-{4-(2-hydroxymorpholin-4-yl)-1-[1-(pyridin-3-ylmethyl)piperidin-4-yl]-1H-pyrazolo[3,4-d]pyrimidin-6-yl}phenyl)-3-methylurea [Example 61]”, the results for the IC50 in test [1] and in test [2] were 9130 nM and 300 nM, respectively.
Consider “1-Ethyl-3-(4-{1-[1-(4-hydroxy-butyl)-piperidin-4-yl]-4-morpholin-4-yl-1H-pyrazolo[3,4-d]pyrimidin-6-yl}-phenyl)-urea [Example 52]”, for which the figures for the concentration for half-maximal inhibition (IC50) in test [1] and in test [2] were 1430 nM and 11.5 nM, respectively.
As to “1-{4-[1-(1-Benzyl-piperidin-4-yl)-4-morpholin-4-yl-1H-pyrazolo[3,4-d]pyrimidin-6-yl]-phenyl}-3-methyl-thiourea [Example 34]”, the IC50 in test [1] was determined as 1110 nM; in test [2] it was 1200 nM.
The matching figures for “3-(4-Morpholin-4-yl-1-piperidin-4-yl-1H-pyrazolo[3,4-d]pyrimidin-6-yl)-phenol [Example 5]”: 440 nM and 240 nM.
Take “3-[4-(1,4-oxazepan-4-yl)-1-phenyl-1H-pyrazolo[3,4-d ]pyrimidin-6-yl]phenol [Example 75]”: the IC50 in test [1] is 10000 nM; in test [2], ≥ 20000 nM.
“4-(4-morpholin-4-yl-1-phenyl-1H-pyrazolo[3,4-d]pyrimidin-6-yl)aniline [Example 10]” returned a 50% inhibitory concentration (IC50) in test [2] of 215 nM.
Regarding “4-(6-(3-hydroxyphenyl)-1-phenyl-1H-pyrazolo[3,4-d]pyrimidin-4-yl)morpholin-3-one [Example 73]”, the IC50 in test [1] (listed as 74) is 8570 nM; in test [1], 8770 nM; in test [2], 380 nM.
Regarding “4-{6-[4-(2,3-Dimethyl-isothioureido)-phenyl]-4-morpholin-4-yl-pyrazolo[3,4-d]pyrimidin-1-yl}-piperidine-1-carboxylic acid isopropyl ester [Example 57]”, the concentration for half-maximal inhibition (IC50) in test [1] worked out at 1700 nM; in test [2], 118 nM.
For the compound “5-[1-(1-Benzyl-piperidin-4-yl)-4-morpholin-4-yl-1H-pyrazolo[3,4-d]pyrimidin-6-yl]-1,3-dihydro-benzoimidazol-2-one [Example 35]”, the results for the half-maximal inhibitory concentration (IC50) in test [1] and in test [2] were 8200 nM and 130 nM, respectively.
In the case of `O=C(Nc1ccccc1)Nc1cc(F)c(-c2nc(N3CCOCC3)c3cnn(C4CCN(C(=O)c5cccnc5)CC4)c3n2)cc1F` [Example 469, 1-(2,5-difluoro-4-{4-morpholin-4-yl-1-[1-(pyridin-3-ylcarbonyl)piperidin-4-yl]-1H-pyrazolo[3,4-d]pyrimidin-6-yl}phenyl)-3-phenylurea], the IC50 was found to be 170 nM in test [3] (Homo sapiens, LNCaP, 72 h); 173 nM in test [1]; 600 nM in test [4] (Homo sapiens, 72 h).
Take `CNC(=O)Nc1ccc(-c2nc(N3CCOCC3)c3cnn(C4CCN(CC(F)(F)F)CC4)c3n2)cc1` [Example 470, 1-methyl-3-(4-{4-morpholin-4-yl-1-[1-(2,2,2-trifluoroethyl)piperidin-4-yl]-1H-pyrazolo[3,4-d]pyrimidin-6-yl}phenyl)urea]: the half-inhibitory concentration (IC50) in test [3] (Homo sapiens, LNCaP, 72 h) was 56 nM; in test [1], 187 nM; in test [4] (Homo sapiens, 72 h), 300 nM.
As for `CNC(=O)Nc1ccc(-c2nc(N3CCOCC3)c3cnn(C4CCN(C(C)=O)CC4)c3n2)cc1` [Example 472, 1-{4-[1-(1-acetylpiperidin-4-yl)-4-morpholin-4-yl-1H-pyrazolo[3,4-d]pyrimidin-6-yl]phenyl}-3-methylurea], the half-maximal inhibitory concentration (IC50) was found to be 800 nM in test [3] (Homo sapiens, LNCaP, 72 h); 225 nM in test [1]; 1200 nM in test [4] (Homo sapiens, 72 h).
As to `CNC(=O)Nc1ccc(-c2nc(N3CCOCC3)c3cnn(C4CCN(C(=O)N(C)C)CC4)c3n2)cc1` [Example 473, N,N-dimethyl-4-(6-{4-[(methylcarbamoyl)amino]phenyl}-4-morpholin-4-yl-1H-pyrazolo[3,4-d]pyrimidin-1-yl)piperidine-1-carboxamide], the 50% inhibitory concentration (IC50) in test [3] (Homo sapiens, LNCaP, 72 h) worked out at 200 nM; in test [1], 209 nM; in test [4] (Homo sapiens, 72 h), 500 nM.
Take `CNC(=O)Nc1ccc(-c2nc(N3CCOCC3)c3cnn(C4CCN(C(=O)COC)CC4)c3n2)cc1` [Example 474, 1-(4-{1-[1-(methoxyacetyl)piperidin-4-yl]-4-morpholin-4-yl-1H-pyrazolo[3,4-d]pyrimidin-6-yl}phenyl)-3-methylurea]: the concentration for half-maximal inhibition (IC50) came out at 1010 nM in test [3] (Homo sapiens, LNCaP, 72 h); 287 nM in test [1]; 1400 nM in test [4] (Homo sapiens, 72 h).
Regarding `CNC(=O)Nc1ccc(-c2nc(N3CCOCC3)c3cnn(C4CCN(C(=O)C(C)C)CC4)c3n2)cc1` [Example 475, 1-{4-[1-(1-isobutyrylpiperidin-4-yl)-4-morpholin-4-yl-1H-pyrazolo[3,4-d]pyrimidin-6-yl]phenyl}-3-methylurea], the IC50 in test [3] (Homo sapiens, LNCaP, 72 h) came out at 150 nM; in test [1] it was 148 nM; in test [4] (Homo sapiens, 72 h), 300 nM.
As to `CNC(=O)Nc1ccc(-c2nc(N3CCOCC3)c3cnn(C4CCN(C(=O)NC)CC4)c3n2)cc1` [Example 477, N-methyl-4-(6-{4-[(methylcarbamoyl)amino]phenyl}-4-morpholin-4-yl-1H-pyrazolo[3,4-d]pyrimidin-1-yl)piperidine-1-carboxamide], the IC50 in test [3] (Homo sapiens, LNCaP, 72 h) came to 2200 nM; in test [1] it was 149 nM; in test [4] (Homo sapiens, 72 h) it was 1800 nM.
In the case of “methyl [4-(1-{1-[(6-fluoropyridin-3-yl)methyl]piperidin-4-yl}-4-morpholin-4-yl-1H-pyrazolo[3,4-d]pyrimidin-6-yl) phenyl]carbamate [Compound 453]”, the 50% inhibitory concentration (IC50) in test [3] was found to be 900 nM; in test [1], 1200 nM; in test [4], 6000 nM.
Regarding “methyl [4-(1-{1-[(6-fluoropyridin-3-yl)methyl]piperidin-4-yl}-4-morpholin-4-yl-1H-pyrazolo[3,4-d]pyrimidin-6-yl)phenyl]carbamate [Compound 697]”, the IC50 is 900 nM in test [3], 1200 nM in test [1] and 6000 nM in test [4].

The values above are taken from patent US20080234262A1 (Wyeth, priority 2007, published 2008).
